# According to PubChem BioAssay AID720495 (Broad Institute, 2013):
# Results filed as inconclusive are left out. Calls of active or inactive are those of the source. How the calls were made is not given here.
# Target: Protein AF-9 (Homo sapiens) (UniProt P42568)
# Assay: AF9 binding to AF4 blockers, potency – biochemical, cherry-picked samples, plate reader, dose response (AID 720495)
# Conditions: biochemical protein-protein interaction assay
# Chain of Protein AF-9 (Homo sapiens) (P42568 whole entry, looked up): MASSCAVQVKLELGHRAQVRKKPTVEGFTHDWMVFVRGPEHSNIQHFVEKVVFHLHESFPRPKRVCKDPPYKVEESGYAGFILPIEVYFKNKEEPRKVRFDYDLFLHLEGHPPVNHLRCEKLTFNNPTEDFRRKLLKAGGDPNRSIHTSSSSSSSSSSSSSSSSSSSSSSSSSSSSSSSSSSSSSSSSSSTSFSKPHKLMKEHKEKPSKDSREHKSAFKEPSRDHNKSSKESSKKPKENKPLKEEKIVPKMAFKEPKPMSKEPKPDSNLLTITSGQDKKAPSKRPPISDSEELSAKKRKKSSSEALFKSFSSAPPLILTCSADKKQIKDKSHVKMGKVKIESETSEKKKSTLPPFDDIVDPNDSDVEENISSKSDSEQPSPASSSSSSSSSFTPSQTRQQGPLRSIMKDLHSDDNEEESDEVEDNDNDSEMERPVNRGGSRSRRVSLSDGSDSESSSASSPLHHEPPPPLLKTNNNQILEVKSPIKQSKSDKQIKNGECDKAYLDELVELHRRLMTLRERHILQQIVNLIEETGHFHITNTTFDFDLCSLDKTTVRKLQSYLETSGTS
row,SMILES,AC50 [µM]
1,CCOc1ccc(NCc2cccn2-c2nnc(N3CCC(C(=O)NCCCN4CCCCC4CC)CC3)s2)cc1 (stereo not given),4.01
2,C#CCOCCOCCOCCNc1nc(N2CCN(C(=O)[C@H](CCCCN)n3cc([C@@H](N)CC(N)=O)nn3)CC2)nc(N2CCN(C(=O)[C@H](CCCCN)n3cc([C@@H](N)CC(N)=O)nn3)CC2)n1,6.87
3,C[C@@H]1CN([C@@H](C)CO)C(=O)c2cc(N(C)C)ccc2O[C@@H](C)CCCCO[C@@H]1CN(C)Cc1ccc(C(F)(F)F)cc1,10.5
4,COCCN=c1scc(-c2ccco2)n1/N=C/c1ccc(O)c(O)c1O,0.538
5,COc1ccc(S(=O)(=O)/N=C2\C=C(Nc3ccc(O)cc3)C(=O)c3ccccc32)cc1,0.724
6,CC[n+]1c(/C=C/C=C/c2ccc(N(C)C)cc2)sc2ccccc21,0.522
7,C#CCOCCOCCOCCNc1nc(N2CCN(C(=O)[C@H](CCCCN)n3cc(CN)nn3)CC2)nc(N2CCN(C(=O)[C@H](CCCN=C(N)N)n3cc(C(N)[C@H](C)CC)nn3)CC2)n1 (stereo not given in full),2.81
8,CC(=O)OCCNc1cc(N2CCN(C)CC2)c2noc3c2c1C(=O)c1ccccc1-3,1.94
9,CC[n+]1c(/C=C/c2ccc(N(C)C)cc2)ccc2ccccc21,8.28
10,NC(N)=NCCCS(=O)(=O)Nc1ccc(Nc2c3ccccc3nc3cc([N+](=O)[O-])ccc23)cc1,2.85
11,Oc1cc(-c2ccncc2)cc2cccnc12,3.01
12,Oc1c(C(c2ccccn2)N2CCCCC2)cc(Cl)c2cccnc12 (stereo not given),1.84
13,CN(C)CC/C=C1\c2ccc(F)cc2Sc2cc(F)c(Cl)cc21,9.52
14,C[C@@H]1NC(=O)N[C@@H]1CCCCCC(=O)O,< 0.08
15,CSc1ccc2c(c1)N(CCC1CCCCN1C)c1ccccc1S2 (stereo not given),6.31
16,CCN1CCN(c2ccc(N)cc2C)CC1,6.46
17,COc1ccc(NC2=C(NCCO)C(=O)c3ccccc3C2=O)cc1,4.37

# Same assay, conditions: biochemical protein-protein interaction assay, at 10 µM (top of the series)
row,SMILES,"activity change, negative = inhibition"
1,CCc1ccc(OCCNc2cc(N3CCNC(C)C3)ccc2[N+](=O)[O-])cc1 (stereo not given),inactive
2,CCOC(=O)/C(C#N)=C/c1c(N2CCN(Cc3ccc4c(c3)OCO4)CC2)nc2c(C)cccn2c1=O,inactive
3,C[C@@H]1ON(C)[C@H]2C[C@H]3c4[nH]c5ccc(-c6ccc7c(c6)OCO7)cc5c4CCN3C[C@@H]12,inactive
4,Nc1ccccc1Nc1cc(-c2ccccc2)nn1-c1cccc(Cl)c1,inactive
5,COc1cccc(-c2ccc3c(c2)[C@H]2[C@H](CCN2C(=O)C2CCCCC2)[C@@H](CO)N3)c1,inactive
6,Nc1ccc(N)c(C(=O)O)c1,inactive
7,COc1ccc(-c2ccc3[nH]c4c(c3c2)CCN2C[C@H]3[C@H](C)ON(C)[C@H]3C[C@@H]42)cc1,inactive
8,C[C@@H]1CN([C@@H](C)CO)C(=O)Cc2cc(N(C)C)ccc2O[C@H]1CN(C)Cc1ccc(Cl)c(Cl)c1,inactive
9,Cc1ccc2c(c1)c1c3n2CCCN(Cc2ccccc2)C3CCC1 (stereo not given),inactive
10,COc1ccc(CN2CCC(N(CCc3ccccc3)Cc3ccccc3)CC2)c(OC)c1,inactive
11,O=S(=O)(c1ccc(Cl)cc1)N1CCN(Cc2ccc(O)c3ncccc23)CC1,inactive
12,Cc1ccc2ccc(C(Nc3cccc(C(F)(F)F)c3)c3cccnc3)c(O)c2n1 (stereo not given),inactive
13,Cc1cc(C)cc(OCC(O)CN2CCC(CN3C(=O)c4cccc5cccc(c45)C3=O)CC2)c1 (stereo not given),inactive
14,O=C(O)CCNc1ccc(NCCC(=O)O)c2c1C(=O)c1ccccc1C2=O,inactive
15,CN(C)c1ccc(NC(=O)Cn2cc3c(n2)CCCC3)cc1,inactive
16,COc1ccc2ccccc2c1-c1sc(Nc2ccccc2)n[n+]1-c1ccc(F)cc1,inactive
17,CC(=O)c1ccc(OCC(=O)Nc2ccc(N3CCCCC3)cc2)cc1,inactive
18,Cc1nn(-c2ccccc2)c(Cl)c1/C=C1\C(=O)N(C)C(=S)N1C,inactive
